This note sets out measurements from publication PMC9967700, “Metabolism-Guided Optimization of Tryptophanol-Derived Isoindolinone p53 Activators” (Pharmaceuticals, 2023).

This test has as its target T1, wt p53 core domain (DNA Binding Domain; p53DBD; residues 94–312) (Homo sapiens, UniProt P04637).
T1 construct: residues 94–312; host or cells: E. coli BL21 (DE3)-[pLys-S]
Kind of test: Differential scanning fluorimetry (DSF) thermostability. The conditions noted are these: 13d 2.5 mM, MQ 2 mM; for Tm of the wt p53DBD: 5% DMSO, mean ± SD, three assays. Here is the method: Expression of wt p53 core domain. The wt p53DBD was expressed in E. coli BL21 (DE3)-[pLys-S] in fusion with an N-terminal 21-residue tag containing the hexa-histidyl peptide (His6) and the thrombin recognition sequence, using the pET15b-based expression construct.
For protein expression 10 mL of an overnight (ON) culture was used to inoculate 1 L of LB medium supplemented with 1 mL of ampicillin 100 mg/mL and 1mL of zinc sulphate 100 mM. Culture medium was incubated at 37 °C, 140 rpm till an OD600nm of ~0.5. Protein expression was then induced by adding 0.5 mL of isopropyl β-D-1-thiogalactopyranoside (IPTG) 1M (Cfinal = 0.5 mM) and bacterial growth at 27 °C, 120 rpm ON. E. coli cells were pelleted by centrifugation for 10 min, 4000 rpm, at 4 °C. The cellular pellet was resuspended in 10 mL of Lysis buffer (Sodium phosphate 50 mM; NaCl 300 mM; glycerol 10%, pH 7.4) supplemented with 1mg/mL Lysozyme (Biochemica Applichem Panreac), 1 mM of phenylmethanesulfonyl fluoride (PMSF) (Merck), 5 µg of DNAse I (Panreac applichem) and 0.8% of Triton X-100 (Merck). After a first step of chemical lysis (30 min incubation, at 4 °C), cells were further disrupted by four cycles of sonication, at 4 °C, during 60 s at 50% duty free cycle on a Vibra Cell (Media Cibernetics). The lysate was subsequently cleared by centrifugation at 10,000 rpm, 40 min, at 4 °C and the supernatant containing the soluble proteins were collected.
Purification of human wt p53DBD and His6-tag removal. Immobilized Metal Affinity Chromatography (IMAC) was performed to purify the wt p53DBD using a nickel-nitrilotriacetic acid (Ni-NTA) agarose resin (QIAGEN). Briefly, 1 mL of Ni^2+ resin was pre-equilibrated using MilliQ water (3 × 1 mL) and Lysis buffer containing 10 mM imidazole (3 × 1 mL). The soluble fraction of cellular lysate was supplemented with 6.8 µL of β-mercaptoethanol and 33.2 µL of imidazole 3 M to obtain the final concentrations of […] and 10 mM, respectively. The lysate was added to the pre-equilibrated resin and protein binding was performed by incubation on an orbital shaker for one hour at 4 °C. The suspension was added to a 9 cm polypropylene conical column (Poly-Prep columns; BioRad) and protein purification was performed by gravity flow with an imidazole gradient consisting of three washing steps (2 × 5 mL of Lysis buffer, 20 mM imidazole; 2 × 5 mL of Lysis buffer, 50 mM imidazole; and 1 × 2.5 mL Lysis buffer, 75 mM imidazole) and an elution step with 5 × 500 µL of Lysis buffer, 250 mM imidazole. Protein eluted fractions were assessed by SDS-PAGE and Coomassie staining. Size exclusion chromatography was performed on the pooled protein eluted fractions, using an AKTA prime plus system (GE Healthcare) equipped with a UV detector (280 nm), a HiLoad 16/60, Superdex 200 prep grade column (GE Healthcare) and SEC buffer (25 mM potassium phosphate buffer, 150 mM NaCl, pH 7.5). The fractions corresponding to the wt p53DBD monomers were collected and treated with thrombin (8 units of thrombin/mg wt p53DBD). The thrombin cleavage was conducted for 18 h at rt at pH 7.4 in the assay buffer recommended by the supplier. Before and after digestion protein concentration was determined through Bradford method.
Thermostability of wt p53DBD core domain assessed by differential scanning fluorimetry (DSF). An amount of 5 μg of thrombin-cleaved wt p53DBD was incubated with testing compounds (2.5 mM) in 25 mM potassium phosphate buffer and 150 mM NaCl, pH 7.5 in a final volume of 50 µL containing 2 µL of 1 mM DTT or 1 mM TCEP to promote p53 core domain redox control, and Sypro Orange at 2.5x final concentration. The fluorescence was assessed on a C1000 Touch thermal cycler equipped with a CFX96 optical reaction module (BioRad) and the FRET channel (λexc 450–490 nm and λem 560–580 nm). Temperature was ramped from 20 to 90 °C with a rate of 0.2 °C/12 sec. The Tm values were calculated using Origin 8 Software. […]

SMILES strings stand for the structures.

T1 sequence (P04637 94-312): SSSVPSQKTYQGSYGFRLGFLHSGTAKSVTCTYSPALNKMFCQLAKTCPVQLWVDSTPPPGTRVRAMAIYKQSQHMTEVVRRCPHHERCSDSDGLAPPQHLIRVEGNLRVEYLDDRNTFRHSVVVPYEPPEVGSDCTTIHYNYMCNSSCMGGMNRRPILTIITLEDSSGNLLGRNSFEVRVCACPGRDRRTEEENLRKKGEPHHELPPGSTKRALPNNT

With `CCCn1c(Br)c(C[C@H]2CO[C@]3(c4ccccc4)c4ccccc4C(=O)N23)c2ccccc21` [Compound 13d, (3S, 9bR)-3-((2-bromo-1-propyl-1H-indol-3-yl)methyl)-9b-phenyl-2,3-dihydrooxazolo[2,3-a]isoindol-5(9bH)-one], the “ΔTm of the wt p53DBD” value (DTT 1 mM) is listed as “did not increase the wt p53DBD Tm” and the “ΔTm of the wt p53DBD” value (TCEP 1 mM) was determined as 10.4 °C. Moreover, the “Tm of the wt p53DBD” value reads like this: (DTT (1 mM)) 40.51 ± 0.09 °C; (TCEP (1 mM)) 51.38 ± 0.38 °C. Also, the ΔTm at 2500 µM (TCEP 1 mM) is 10.4 °C.
